Key:
[1] = molecular target: T1, ATP-dependent translocase ABCB1 (Homo sapiens, UniProt P08183); experiment: Inhibition of human MDR1 transfected in multi-drug resistant mouse L5178Y cells assessed as fluorescence activity ratio quotient at 2 uM incubated for 10 mins by rhodamine 123 accumulation assay relative to verapamil; assay type: cell-based; parameters: scale not given: the % may be the effect or the level left
[2] = tested on: L5178Y; experiment: Induction of apoptosis in multi-drug resistant mouse L5178Y cells transfected with human MDR1 assessed as late apoptosis/necrosis at 2 uM after 1 hr by Annexin V-FITC/propidium iodide staining-based flow cytometry (reference value: 2.28%); assay type: functional
[3] = tested on: L5178Y; experiment: Induction of apoptosis in mouse L5178Y cells assessed as cell death at 2 uM after 1 hr by Annexin V-FITC/propidium iodide staining-based flow cytometry (reference value: 0.191%); assay type: functional
[4] = tested on: L5178Y; experiment: Induction of apoptosis in multi-drug resistant mouse L5178Y cells transfected with human MDR1 assessed as early apoptosis at 2 uM after 1 hr by Annexin V-FITC/propidium iodide staining-based flow cytometry (reference value: 6.46%); assay type: functional
[5] = tested on: L5178Y; experiment: Cytotoxicity against mouse L5178Y cells assessed as growth inhibition after 72 hrs by MTT assay; assay type: functional, cell-based
[6] = tested on: L5178Y; experiment: Induction of apoptosis in multi-drug resistant mouse L5178Y cells transfected with human MDR1 assessed as cell death at 2 uM after 1 hr by Annexin V-FITC/propidium iodide staining-based flow cytometry (reference value: 0.09%); assay type: functional
[7] = molecular target: T1, ATP-dependent translocase ABCB1; experiment: Inhibition of human MDR1 transfected in multi-drug resistant mouse L5178Y cells assessed as fluorescence activity ratio at 20 uM incubated for 10 mins by rhodamine 123 accumulation assay; assay type: cell-based
[8] = molecular target: T1, ATP-dependent translocase ABCB1; experiment: Inhibition of human MDR1 transfected in multi-drug resistant mouse L5178Y cells assessed as fluorescence activity ratio quotient at 20 uM incubated for 10 mins by rhodamine 123 accumulation assay relative to verapamil; assay type: cell-based; parameters: scale not given: the % may be the effect or the level left
[9] = molecular target: T1, ATP-dependent translocase ABCB1; experiment: Inhibition of human MDR1 transfected in multi-drug resistant mouse L5178Y cells assessed as fluorescence activity ratio at 2 uM incubated for 10 mins by rhodamine 123 accumulation assay; assay type: cell-based
[10] = tested on: L5178Y; experiment: Induction of apoptosis in mouse L5178Y cells assessed as early apoptosis at 2 uM after 1 hr by Annexin V-FITC/propidium iodide staining-based flow cytometry (reference value: 3.96%); assay type: functional
[11] = tested on: L5178Y; experiment: Cytotoxicity against multi-drug resistant mouse L5178Y cells assessed as growth inhibition after 72 hrs by MTT assay; assay type: functional, cell-based
[12] = tested on: L5178Y; experiment: Induction of apoptosis in mouse L5178Y cells assessed as late apoptosis/necrosis at 2 uM after 1 hr by Annexin V-FITC/propidium iodide staining-based flow cytometry (reference value: 0.859%); assay type: functional
[13] = tested on: L5178Y; experiment: Induction of apoptosis in multi-drug resistant mouse L5178Y cells transfected with human MDR1 assessed as early apoptosis at 20 uM after 1 hr by Annexin V-FITC/propidium iodide staining-based flow cytometry (reference value: 6.46%); assay type: functional
[14] = tested on: L5178Y; experiment: Induction of apoptosis in mouse L5178Y cells assessed as cell death at 20 uM after 1 hr by Annexin V-FITC/propidium iodide staining-based flow cytometry (reference value: 0.191%); assay type: functional
[15] = tested on: L5178Y; experiment: Induction of apoptosis in multi-drug resistant mouse L5178Y cells transfected with human MDR1 assessed as cell death at 20 uM after 1 hr by Annexin V-FITC/propidium iodide staining-based flow cytometry (reference value: 0.09%); assay type: functional
[16] = tested on: L5178Y; experiment: Induction of apoptosis in multi-drug resistant mouse L5178Y cells transfected with human MDR1 assessed as late apoptosis/necrosis at 20 uM after 1 hr by Annexin V-FITC/propidium iodide staining-based flow cytometry (reference value: 2.28%); assay type: functional
[17] = tested on: L5178Y; experiment: Induction of apoptosis in mouse L5178Y cells assessed as early apoptosis at 20 uM after 1 hr by Annexin V-FITC/propidium iodide staining-based flow cytometry (reference value: 3.96%); assay type: functional
[18] = tested on: L5178Y; experiment: Induction of apoptosis in mouse L5178Y cells assessed as late apoptosis/necrosis at 20 uM after 1 hr by Annexin V-FITC/propidium iodide staining-based flow cytometry (reference value: 0.859%); assay type: functional
[19] = molecular target: T1, ATP-dependent translocase ABCB1; experiment: Inhibition of human MDR1 transfected in multi-drug resistant mouse L5178Y cells at 2 uM incubated for 10 mins by rhodamine 123 accumulation assay relative to verapamil; assay type: cell-based
[20] = molecular target: T1, ATP-dependent translocase ABCB1; experiment: Inhibition of human MDR1 transfected in multi-drug resistant mouse L5178Y cells at 20 uM incubated for 10 mins by rhodamine 123 accumulation assay relative to verapamil; assay type: cell-based
[21] = tested on: L5178Y; experiment: Ratio of induction of apoptosis in mouse L5178Y cells to multi-drug resistant mouse L5178Y cells transfected with human MDR1; assay type: functional

T1 sequence (P08183 whole entry): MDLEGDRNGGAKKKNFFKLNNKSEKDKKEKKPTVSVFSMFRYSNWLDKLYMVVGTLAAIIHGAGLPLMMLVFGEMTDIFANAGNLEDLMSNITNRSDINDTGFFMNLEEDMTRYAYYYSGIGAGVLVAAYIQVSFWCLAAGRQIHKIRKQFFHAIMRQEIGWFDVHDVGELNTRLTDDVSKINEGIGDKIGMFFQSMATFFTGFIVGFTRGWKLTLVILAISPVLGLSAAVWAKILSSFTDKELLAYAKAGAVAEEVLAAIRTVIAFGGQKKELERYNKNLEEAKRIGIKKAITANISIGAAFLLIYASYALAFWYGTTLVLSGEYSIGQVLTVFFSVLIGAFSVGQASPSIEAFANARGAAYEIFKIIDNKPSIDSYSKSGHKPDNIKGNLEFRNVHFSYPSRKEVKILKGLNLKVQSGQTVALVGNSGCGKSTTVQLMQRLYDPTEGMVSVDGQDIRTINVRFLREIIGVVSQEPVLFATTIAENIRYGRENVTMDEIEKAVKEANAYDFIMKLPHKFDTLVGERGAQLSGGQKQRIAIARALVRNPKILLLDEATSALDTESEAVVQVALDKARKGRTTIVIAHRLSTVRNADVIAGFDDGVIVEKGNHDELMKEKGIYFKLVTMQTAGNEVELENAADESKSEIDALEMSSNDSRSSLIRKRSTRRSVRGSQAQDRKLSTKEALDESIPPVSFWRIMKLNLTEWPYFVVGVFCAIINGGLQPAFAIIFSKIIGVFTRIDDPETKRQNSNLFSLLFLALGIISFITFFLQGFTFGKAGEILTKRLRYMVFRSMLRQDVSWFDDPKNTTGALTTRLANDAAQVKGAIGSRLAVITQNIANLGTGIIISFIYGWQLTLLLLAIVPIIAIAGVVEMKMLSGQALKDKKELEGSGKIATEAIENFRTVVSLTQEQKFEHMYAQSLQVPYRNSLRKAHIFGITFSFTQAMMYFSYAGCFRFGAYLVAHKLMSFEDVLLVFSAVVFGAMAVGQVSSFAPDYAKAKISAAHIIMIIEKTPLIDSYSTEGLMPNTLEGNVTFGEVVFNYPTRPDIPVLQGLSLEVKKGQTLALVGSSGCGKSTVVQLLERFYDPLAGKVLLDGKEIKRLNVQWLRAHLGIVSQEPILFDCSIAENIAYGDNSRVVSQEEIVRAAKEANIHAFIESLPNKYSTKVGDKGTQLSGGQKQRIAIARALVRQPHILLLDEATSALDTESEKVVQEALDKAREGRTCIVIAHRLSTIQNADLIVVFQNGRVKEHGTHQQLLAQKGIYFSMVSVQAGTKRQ

SMILES	Activity [1] [%]	Activity [2] [%]	Activity [3] [%]	Activity [4] [%]	IC50 [5] [µM]	Activity [6] [%]	Ratio [7]	Activity [8] [%]	Ratio [9]	Activity [10] [%]	IC50 [11] [µM]	Activity [12] [%]	fold change (FC) [20]	other results
COC(=O)C[Se]C(=O)c1ccc(Cl)cc1	30.28	1.47	0.497	2.69	> 100	0.03	8.53	23.54	6.45	5.09	87.8	2.52		
C[Se]C(=O)c1ccc(C(=O)[Se]C)cc1	18.64	3.25	0.11	3.01	> 100	0.37	3.09	14.49	3.97	3.61	> 100	2.01		
c1ccc2c(c1)Nc1c(ccc3ccccc13)S2														Activity [13]: 47.9%; Activity [14]: 0.279%; Activity [15]: 0.12%; Activity [16]: 45.7%; Activity [17]: 51.2%; Activity [18]: 5.58%
O=C(C[Se]C(=O)c1ccccc1)Oc1ccccc1	3.05	2.26	0.24	3.9	> 100	0.16	5.68	2.37	0.65	3	> 100	2.11		
C[Se]C(=O)c1ccc(C(=O)[Se]C)s1	3.61	2.34	0.352	5.07	> 100	0.3	1.07	3.19	0.99	6.64	> 100	6.93		
O=C1[Se]C(=O)c2ccccc21	157.4	45	0.767	32.2	3.97	0.47	97.61	356.2	43.14	31.5	4.65	53.9	1.7	fold change (FC) [19]: 1.6
CC(C)(C)C(=O)C[Se]C(=O)c1ccc(Cl)cc1	33.87	21.9	0.255	15.9	0.94	1.21	48.67	177.63	9.28	36.1	0.43	56.1	1.7	Ratio [21]: 2
NC(=O)C[Se]C(=O)c1ccccc1	3.04	2.91	0.081	3.01	> 100	0.33	1.05	3.72	1.02	2.46	36.4	2.24		
C[Se]C(=O)c1cccc(C(=O)[Se]C)c1	2.78	2.8	0.076	4.35	> 100	0.45	0.98	3.39	0.93	4.47	> 100	3.79		
C[Se]C(=O)c1cccc(C(=O)[Se]C)n1	3.98	3.28	0.202	5.38	19.5	0.24	1.49	5.44	1.13	5.97	16.9	7.18		
CSc1ccc2c(c1)N(CCC1CCCCN1C)c1ccccc1S2 (stereo not drawn) [THIORIDAZINE]					12.7						7.43			
CC(=O)C[Se]C(=O)c1ccc(Cl)cc1	343.79	85.8	0.874	3.86	0.78	7.66	84.64	308.91	94.2	30.8	1.03	52.7	1.7	fold change (FC) [19]: 1.6
COc1cc(OC)cc(C(=O)[Se]CC(=O)C(C)(C)C)c1	45.84	30.5	0.167	16.6	1.31	0.51	46.35	169.16	12.56	15.7	0.97	66.6	1.7	Ratio [21]: 2

— ChEMBL document CHEMBL3797176, “Identification of selenocompounds with promising properties to reverse cancer multidrug resistance” (Bioorg Med Chem Lett, 2016)
